Experimental data from ChEMBL document CHEMBL4382254, “Design, synthesis, structure-activity relationships and mechanism of action of new quinoline derivatives as potential antitumor agents” (Eur J Med Chem, 2019).
Activity calls are given as the source filed them. The calls are words filed in the database; no cut-off is given here.

Tests used:
HCT-116 [1] = assay: Induction of apoptosis in Bax-deficient human HCT116 cells assessed as necrotic cells at 5 uM after 24 hrs by Annexin V-FITC/propidium iodide staining based flow cytometry (reference value: 6.74%); type: functional
HCT-116 [2] = assay: Induction of autophagy in human HCT116 cells expressing GFP-LC3 assessed as increase in LC3 puncta formation at 10 uM after 24 hrs by fluorescence microscopic analysis; type: functional, cell-based
HCT-116 [3] = assay: Induction of apoptosis in P53-deficient human HCT116 cells assessed as viable cells at 5 uM after 24 hrs by Annexin V-FITC/propidium iodide staining based flow cytometry (reference value: 75.5%); type: functional; settings: HCT-116, 24 h, read-out: Activity
[4] = target: Cellular tumor antigen p53 (Homo sapiens) (UniProt P04637); assay: Induction of P53 phosphorylation at Ser15 residue in human HCT116 cells after 15 to 90 mins by immunoblot analysis; type: cell-based
DLD-1 [5] = assay: Cytotoxicity against human DLD1 cells assessed as reduction in cell viability at 5 uM incubated for 24 hrs followed by compound washout by CCK8 assay; type: functional, cell-based; settings: TDE = time-dependent effect
HCT-116 [6] = assay: Induction of apoptosis in human HCT116 cells assessed as viable cells at 2.5 to 5 uM after 24 hrs in presence of pan-caspase inhibitor z-VAD-FMK by Annexin V-FITC/propidium iodide staining based flow cytometry (reference value: 88.08%); type: functional
RKO [7] = assay: Inhibition of colony formation in human RKO cells after 24 hrs by crystal violet staining based assay; type: functional, cell-based
HCT-116 [8] = assay: Induction of apoptosis in human HCT116 cells assessed as increase in late apoptotic cells after 24 hrs by Annexin V-FITC/propidium iodide staining based flow cytometry; type: functional, cell-based
HCT-116 [9] = assay: Cell cycle arrest in human HCT116 cells assessed as accumulation at G2/M phase at 5 uM after 48 hrs by propidium iodide staining based flow cytometry (reference value: 11.24%); type: functional
HCT-116 [10] = assay: Induction of apoptosis in Bax-deficient human HCT116 cells assessed as late apoptotic cells at 5 uM after 24 hrs by Annexin V-FITC/propidium iodide staining based flow cytometry (reference value: 14.67%); type: functional
FHC = assay: Cytotoxicity against human FHC cells assessed as reduction in cell viability at 5 uM incubated for 24 hrs by CCK8 assay; type: cell-based
HCT-116 [11] = assay: Induction of apoptosis in human HCT116 cells assessed as increase in cleaved PARP level after 24 hrs in presence of pan-caspase inhibitor z-VAD-FMK by immunoblot analysis; type: functional, cell-based
HCT-116 [12] = assay: Induction of apoptosis in human HCT116 cells assessed as necrotic cells at 5 uM after 24 hrs by Annexin V-FITC/propidium iodide staining based flow cytometry (reference value: 3.46 to 9.31%); type: functional
DLD-1 [13] = assay: Induction of morphological changes in human DLD1 cells assessed as cell shrinkage at 5 to 10 uM after 24 hrs by phase contrast microscopic analysis; type: functional, cell-based
HCT-116 [14] = assay: Cell cycle arrest in human HCT116 cells assessed as accumulation at S phase at 5 uM after 48 hrs by propidium iodide staining based flow cytometry (reference value: 6.79%); type: functional
HCT-116 [15] = assay: Cell cycle arrest in human HCT116 cells assessed as accumulation at G0/G1 phase at 5 uM after 48 hrs by propidium iodide staining based flow cytometry (reference value: 82.16%); type: functional
[16] = target: Cellular tumor antigen p53 (Homo sapiens) (UniProt P04637); assay: Induction of P53 translocation to nucleus in human HCT116 cells measured after 15 to 90 mins by immunoblot analysis; type: cell-based
DLD-1 [17] = assay: Induction of morphological changes in human DLD1 cells assessed as reduction in cell number at 5 to 10 uM after 24 hrs by phase contrast microscopic analysis; type: functional, cell-based
HCT-116 [18] = assay: Induction of apoptosis in human HCT116 cells assessed as necrotic cells at 2.5 uM after 24 hrs by Annexin V-FITC/propidium iodide staining based flow cytometry (reference value: 3.46%); type: functional
RKO [19] = assay: Cytotoxicity against human RKO cells after 48 hrs by MTT assay; type: functional, cell-based
HCT-116 [20] = assay: Induction of apoptosis in human HCT116 cells assessed as increase in cleaved PARP level at 2.5 to 10 uM after 24 hrs by immunoblot analysis; type: functional, cell-based
HCT-116 [21] = assay: Cell cycle arrest in human HCT116 cells assessed as accumulation at G2/M phase at 5 uM after 24 hrs by propidium iodide staining based flow cytometry (reference value: 16.3%); type: functional
HCT-116 [22] = assay: Cytotoxicity against human HCT116 cells assessed as reduction in cell viability measured after 24 hrs by CCK8 assay; type: functional, cell-based; settings: HCT-116, 24 h
HCT-116 [23] = assay: Induction of apoptosis in Bax-deficient human HCT116 cells assessed as viable cells at 5 uM after 24 hrs by Annexin V-FITC/propidium iodide staining based flow cytometry (reference value: 70.58%); type: functional; settings: HCT-116, 24 h, read-out: Activity
HCT-116 [24] = assay: Induction of apoptosis in human HCT116 cells assessed as late apoptotic cells at 2.5 uM after 24 hrs by Annexin V-FITC/propidium iodide staining based flow cytometry (reference value: 6.08%); type: functional
HCT-116 [25] = assay: Induction of apoptosis in human HCT116 cells assessed as decrease in pro-caspase3 level at 2.5 to 10 uM after 24 hrs by immunoblot analysis; type: functional, cell-based
HCT-116 [26] = assay: Induction of morphological changes in human HCT116 cells assessed as cell shrinkage at 5 to 10 uM after 24 hrs by phase contrast microscopic analysis; type: functional, cell-based
[27] = Solubility of the compound in water; type: physicochemical
HCT-116 [28] = assay: Inhibition of colony formation in P53-deficient human HCT116 cells after 24 hrs by crystal violet staining based assay; type: functional, cell-based
HCT-116 [29] = assay: Induction of apoptosis in human HCT116 cells assessed as decrease in pro-caspase9 level at 2.5 to 10 uM after 24 hrs by immunoblot analysis; type: functional, cell-based
HCT-116 [30] = assay: Induction of apoptosis in human HCT116 cells assessed as late apoptotic cells at 5 uM after 24 hrs by Annexin V-FITC/propidium iodide staining based flow cytometry (reference value: 6.08 to 11.92%); type: functional
HCT-116 [31] = assay: Induction of apoptosis in P53-deficient human HCT116 cells assessed as decrease in PARP expression at 2.5 to 20 uM after 24 hrs by immunoblot analysis; type: functional, cell-based
HCT-116 [32] = assay: Induction of apoptosis in P53-deficient human HCT116 cells assessed as late apoptotic cells at 5 uM after 24 hrs by Annexin V-FITC/propidium iodide staining based flow cytometry (reference value: 34.09%); type: functional
HCT-116 [33] = assay: Induction of apoptosis in human HCT116 cells assessed as necrotic cells at 2.5 to 5 uM after 24 hrs in presence of pan-caspase inhibitor z-VAD-FMK by Annexin V-FITC/propidium iodide staining based flow cytometry (reference value: 1.83%); type: functional
HCT-116 [34] = assay: Induction of apoptosis in human HCT116 cells assessed as viable cells at 5 uM after 24 hrs by Annexin V-FITC/propidium iodide staining based flow cytometry (reference value: 73.26 to 87.19%); type: functional; settings: HCT-116, 24 h, read-out: Activity
DLD-1 [35] = assay: Cytotoxicity against human DLD1 cells after 48 hrs by MTT assay; type: functional, cell-based; settings: DLD-1, 48 h
SK-OV-3 = assay: Cytotoxicity against human SKOV3 cells after 48 hrs by MTT assay; type: functional, cell-based; settings: SK-OV-3, 48 h

Sequence of Cellular tumor antigen p53 (Homo sapiens) (P04637 whole entry, looked up): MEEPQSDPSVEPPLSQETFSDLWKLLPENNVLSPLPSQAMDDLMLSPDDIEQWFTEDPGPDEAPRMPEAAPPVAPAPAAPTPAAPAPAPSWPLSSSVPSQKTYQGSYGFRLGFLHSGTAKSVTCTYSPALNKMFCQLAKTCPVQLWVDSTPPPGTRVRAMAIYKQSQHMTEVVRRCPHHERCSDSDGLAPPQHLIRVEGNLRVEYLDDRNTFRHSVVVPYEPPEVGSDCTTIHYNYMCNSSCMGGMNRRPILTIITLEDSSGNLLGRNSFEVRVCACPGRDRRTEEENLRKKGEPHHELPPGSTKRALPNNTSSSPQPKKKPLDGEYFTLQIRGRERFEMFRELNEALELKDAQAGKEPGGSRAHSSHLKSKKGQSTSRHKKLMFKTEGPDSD

CN(C)CCNc1ccnc2cc(OCc3ccc(F)cc3)ccc12
Activity (HCT-116 [1]): 1.24% | Activity (HCT-116 [2]): inactive | viability at 5 µM (HCT-116 [3]): 76.3% | Activity [4]: Active | Activity (DLD-1 [5]): Tde | Activity (HCT-116 [6]): 84.15% | inhibition (RKO [7]): Dose-dependent effect | Activity (HCT-116 [8]): Dose-dependent effect | Activity (HCT-116 [9]): 8.88% | Activity (HCT-116 [10]): 7.29% | Activity (FHC): Non-Toxic | Activity (HCT-116 [11]): inactive | Activity (HCT-116 [12]): 9.3 - 10.45% | Activity (DLD-1 [13]): Active | Activity (HCT-116 [14]): 7.61% | Activity (HCT-116 [15]): 83.72% | Activity [16]: Active | Activity (DLD-1 [17]): Active | Activity (HCT-116 [18]): 6.64% | IC50 (RKO [19]): 580 nM | Activity (HCT-116 [20]): Active | Activity (HCT-116 [21]): 12.94% | IC50 (HCT-116 [22]): 72800 nM | viability at 5 µM (HCT-116 [23]): 77.3% | Activity (HCT-116 [24]): 10.32% | Activity (HCT-116 [25]): Active | Activity (HCT-116 [26]): Active | solubility [27]: > 10000 µg/mL | inhibition (HCT-116 [28]): inactive | Activity (HCT-116 [29]): Active | Activity (HCT-116 [30]): 17.49 - 17.54% | Activity (HCT-116 [31]): inactive | Activity (HCT-116 [32]): 14.05% | Activity (HCT-116 [33]): 2.65% | viability at 5 µM (HCT-116 [34]): 52.5 to 69.1% | IC50 (DLD-1 [35]): 810 nM | IC50 (SK-OV-3): 890 nM
